Experiment in all cases: Broth dilution method (EUCAST)
Format in all cases: cell-based
Background: In broth dilution the organism is exposed to a series of concentrations in liquid medium.

Experiment [1] relates to Aspergillus fumigatus ATCC 204305. The following applies: Aspergillus fumigatus. As to the method: (§1) The activity assay was performed using the broth dilution method according to the EUCAST DEFINITIVE DOCUMENT E.DEF 9.3.2. B. cinerea and A. solani were incubated according to the Methods for dilution antimicrobial susceptibility tests for bacteria that grow aerobically by the NCCLS. Keanumycin A was dissolved in DMSO.

The subject of experiment [2] is Candida auris 2021-353. As to the method:
as §1

In experiment [3] the test system is Rhizopus arrhizus 2021-366. The protocol: as §1

≈ marks a conversion by molar mass, not a printed value. Where “and” joins values, the source holds several entries; their conditions need not be identical. Equal values may be shown once. Read-outs that look alike come from different tables or passages of the source. Where a SMILES comes first, the peptide text is derived from it. Bridges are numbered along the chain shown (N, C = ends). [ ]: non-standard residue; d: D form. The star is where a group is joined. X1 = CCCCCCCCCCCC[C@@H](O)[C@@H](O)CC(=O)*; Asp(3S-OH) = N[C@H](C(=O)O)[C@H](O)C(=O)O; Thr(4-Cl) = N[C@H](C(=O)O)[C@H](O)CCl; aThr = C[C@H](O)[C@H](N)C(=O)O; d(hSer) = N[C@H](CCO)C(=O)O; dDab = NCC[C@@H](N)C(=O)O; Dab = NCC[C@H](N)C(=O)O; Dhb = C/C=C(\N)C(=O)O

`C/C=C1\NC(=O)[C@H]([C@H](C)O)NC(=O)[C@H](CCN)NC(=O)[C@@H](CCO)NC(=O)CNC(=O)[C@@H](CCN)NC(=O)[C@@H](NC(=O)C[C@H](O)[C@H](O)CCCCCCCCCCCC)COC(=O)[C@H]([C@H](O)CCl)NC(=O)[C@H]([C@H](O)C(=O)O)NC1=O` [Keanumycin A, keanumycin A] (X1-S[dDab]G[d(hSer)][Dab][aThr][Dhb][Asp(3S-OH)][Thr(4-Cl)]; ester 1-C): the MIC (as a rule, the lowest concentration that inhibits growth of the organism) in experiment [1] (ATCC204305) is 3.42 µM and 4 µg/mL; in experiment [1] (ATCC204305, read-out: Result of the broth dilution method assay (MIC)), 4 µg/mL (≈ 3.43 µM); in experiment [2] (Candidozyma auris, 2021353), 0.86 µM and 1 µg/mL; in experiment [2] (Candidozyma auris, 2021353, read-out: Result of the broth dilution method assay (MIC)), 0.5 to 1 µg/mL (≈ 0.429 to 0.857 µM); in experiment [3] (Rhizopus arrhizus, 2021366), > 6.85 µM and > 8 µg/mL; in experiment [3] (Rhizopus arrhizus, 2021366, read-out: Result of the broth dilution method assay (MIC)) it was above 8 µg/mL.

(Values after patent US20240391958A1, “KEANUMYCINS AND USES THEREOF IN MEDICINE AND PLANT PROTECTION” (Leibniz-Institut für Naturstoff-Forschung und …, priority 2023, published 2024).)
